“And” between values parts separate entries of the source, which are not always exact repeats. Identical values can stand only once.

Series [1] is described as follows: DELAQ concentrations in rat plasma following oral administration of test item. The format is in vivo. Conditions: rats, oral 0.2 mg/kg, in average. As for the experimental part:
DELAQ in rat plasma was also determined under the following condition. The plasma was purified by on-line SPE after precipitation with LUDOX AS-40 colloidal silica solution followed by the analysis with HPLC with MS/MS detection. The main objectives of this example were: • Quantification of Compound 1, Compound 2, Compound 3 and Laquinimod in rat plasma using LC/MS/MS bioanalytical method. • Characterization of the pharmacokinetic profile of Compound 1, Compound 2, Compound 3 and Laquinimod following oral (PO) administration at a dose of 0.2 mg/kg. • The measurement DELAQ concentrations in the collected plasma samples. Blood was withdrawn from the rats at five different time points for the preparation of plasma. The concentrations of Compound 1, Compound 2, Compound 3, laquinimod, and DELAQ were determined in these plasma samples, using applicable LC/MS/MS methods. The concentrations of test items (Compound 1, Compound 2, Compound 3 and Laquinimod) and the concentration of DELAQ were determined in the plasma samples by using reliable LC/MS/MS assay.

Series [2] deals with MOG induced EAE. Nature of the series: MOG induced EAE in C57BL/6 mice. It counts as in vivo. Conditions: daily; for Mortality: Day 0 to Day 30; for % inhibition 1 (according to incidence) / % inhibition 2 (according to MMS) / % inhibition 3 (according to GMS): compared to vehicle; for Incidence: sick mice/group.

Regarding `[2H]C([2H])([2H])C([2H])([2H])N(C(=O)c1c(O)c2c(Cl)cccc2n(C)c1=O)c1ccccc1` [Compound 2, N-D5-ethyl-N-phenyl-1,2-dihydro-4-hydroxy-5-chloro-1-methyl-2-oxoquinoline-3-carboxamide], in series [1], the “reduction in DELAQ concentrations compared to laquinimod treated animals” value is “about ten-fold”. Moreover, in series [2] (10 mg/kg orally), the “GMS value (group mean score)” value amounted to 0.79 ± 0.2, the “MMS value (mean maximal score)” value amounted to 2.1 ± 1.3, the “Mean Duration” value is on record as 13.2 ± 7.7 days and the “Mean Onset” value is given as 15.3 ± 6.8 days. In addition, in series [2] (10 mg/kg orally), the “activity in inhibition of EAE clinical signs compared to laquinimod” value was “no significant difference in activity”, the Mortality is 0/15, the “% inhibition 1 (according to incidence)” value amounted to 7.1% and the “% inhibition 2 (according to MMS)” value worked out at 34.4%. Moreover, in series [2] (10 mg/kg orally), the “% inhibition 3 (according to GMS)” value was 64.3% and the Incidence is listed as 13/15.
Consider `CCN(C(=O)c1c(O)c2c(Cl)cccc2n(C)c1=O)c1ccccc1` [Laquinimod, N-ethyl-N-phenyl-1,2-dihydro-4-hydroxy-5-chloro-1-methyl-2-oxoquinoline-3-carboxamide], for which, in series [2] (10 mg/kg orally), the “GMS value (group mean score)” value was determined as 1.14 ± 0.5, the “MMS value (mean maximal score)” value was 2.1 ± 1.9, the “Mean Duration” value came to 9.3 ± 8.3 days and the “Mean Onset” value stood at 21.6 ± 8.4 days. For the same compound, in series [2] (10 mg/kg orally), the Mortality was 0/15, the “% inhibition 1 (according to incidence)” value was found to be 35.7%, the “% inhibition 2 (according to MMS)” value turned out to be 34.4% and the “% inhibition 3 (according to GMS)” value was 48.4%. Moreover, in series [2] (10 mg/kg orally), the Incidence is 9/15. Moreover, the “% inhibition 3 (according to GMS)” value in series [2] (10 mg/kg orally, listed as laquinimod) came out at 48.4%. Besides, in series [2] (25 mg/kg orally), the “GMS value (group mean score)” value is 0.5±0.1 and 0.5 ± 0.13; the “MMS value (mean maximal score)” value is 1.3±1.8; the “Mean Duration” value came out at 3.0 ± 5.8 days; the “Mean Onset” value is reported as 28.0 ± 5.8 days. In series [2] (25 mg/kg orally), the Mortality is on record as 0/15, the “% inhibition 1 (according to incidence)” value came out at 71.4%, the “% inhibition 2 (according to MMS)” value was 59.4% and the “% inhibition 3 (according to GMS)” value is recorded as 97.7%. The Incidence in series [2] (25 mg/kg orally) is reported as 4/15.
